Results as given in PubChem BioAssay (NCI).
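Growth conditions: 96-well plates. Treatment: test compound, 48 hours, 5 concentrations. Analysis: linear interpolation between bracketing concentrations; unreached endpoints set to highest concentration. TGI marks complete inhibition of growth.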

Experiments:
Test in all cases: inhibition of tumour cell growth, NCI panel, 48 h
786-0 renal = tested on: 786-0 renal
A549 NSCLC = tested on: A549 NSCLC
ACHN renal = tested on: ACHN renal
BT-549 breast = tested on: BT-549 breast
CAKI-1 renal = tested on: CAKI-1 renal
COLO 205 colon = tested on: COLO 205 colon
DU-145 prostate = tested on: DU-145 prostate
EKVX NSCLC = tested on: EKVX NSCLC
HCT-116 colon = tested on: HCT-116 colon
HCT-15 colon = tested on: HCT-15 colon
HOP-62 NSCLC = tested on: HOP-62 NSCLC
HS 578T breast = tested on: HS 578T breast
HT29 colon = tested on: HT29 colon
IGROV1 ovarian = tested on: IGROV1 ovarian
K-562 leukemia = tested on: K-562 leukemia
KM12 colon = tested on: KM12 colon
LOX IMVI melanoma = tested on: LOX IMVI melanoma
M14 melanoma = tested on: M14 melanoma
MCF7 breast = tested on: MCF7 breast
MDA-MB-231 breast = tested on: MDA-MB-231 breast
MDA-MB-435 = tested on: MDA-MB-435
MDA-N = tested on: MDA-N
MOLT-4 leukemia = tested on: MOLT-4 leukemia
NCI-H23 lung = tested on: NCI-H23 lung
NCI-H460 lung = tested on: NCI-H460 lung
NCI-H522 lung = tested on: NCI-H522 lung
NCI/ADR-RES ovarian = tested on: NCI/ADR-RES ovarian
OVCAR-3 ovarian = tested on: OVCAR-3 ovarian
OVCAR-4 ovarian = tested on: OVCAR-4 ovarian
OVCAR-5 ovarian = tested on: OVCAR-5 ovarian
OVCAR-8 ovarian = tested on: OVCAR-8 ovarian
PC-3 prostate = tested on: PC-3 prostate
RPMI-8226 leukemia = tested on: RPMI-8226 leukemia
RXF 393 renal = tested on: RXF 393 renal
SF-268 CNS = tested on: SF-268 CNS
SF-295 CNS = tested on: SF-295 CNS
SK-MEL-28 melanoma = tested on: SK-MEL-28 melanoma
SK-MEL-5 melanoma = tested on: SK-MEL-5 melanoma
SK-OV-3 ovarian = tested on: SK-OV-3 ovarian
SN12C renal = tested on: SN12C renal
SNB-19 CNS = tested on: SNB-19 CNS
SR leukemia = tested on: SR leukemia
T-47D breast = tested on: T-47D breast
TK-10 renal = tested on: TK-10 renal
U251 CNS = tested on: U251 CNS
UACC-257 melanoma = tested on: UACC-257 melanoma
UACC-62 melanoma = tested on: UACC-62 melanoma
UO-31 renal = tested on: UO-31 renal
HCC-2998 colon = tested on: HCC-2998 colon
HL-60(TB) leukemia = tested on: HL-60(TB) leukemia
MALME-3M melanoma = tested on: MALME-3M melanoma
NCI-H226 lung = tested on: NCI-H226 lung
SK-MEL-2 melanoma = tested on: SK-MEL-2 melanoma
SNB-75 CNS = tested on: SNB-75 CNS
SW-620 colon = tested on: SW-620 colon
A498 renal = tested on: A498 renal
CCRF-CEM leukemia = tested on: CCRF-CEM leukemia
HOP-92 NSCLC = tested on: HOP-92 NSCLC
SF-539 CNS = tested on: SF-539 CNS

Measured: TGI

OC(c1ccc(-c2ccccc2)cc1)(c1ccc(-c2ccccc2)cc1)c1ccc(-c2ccccc2)cc1
not listed: HCC-2998 colon | HL-60(TB) leukemia | MALME-3M melanoma | NCI-H226 lung | SK-MEL-2 melanoma | SNB-75 CNS | SW-620 colon | A498 renal | CCRF-CEM leukemia | HOP-92 NSCLC | SF-539 CNS
> 100 µM: all other assays above

O=C(n1[nH]c(=O)n(-c2ccc([N+](=O)[O-])cc2)c1=O)C(Cl)(Cl)Cl
not listed: A498 renal | CCRF-CEM leukemia | HOP-92 NSCLC | SF-539 CNS
> 75 µM: all other assays above

O=C(O)c1ccccc1C(=O)OCC1CCCN2CCCCC12 (centres undefined)
not listed: NCI-H522 lung | HL-60(TB) leukemia
> 100 µM: all other assays above

C=C1[C@H](OCC(C)C)[C@@H](OCC(C)C)[C@@H](O)C(C)(C)/C=C/[C@H](C)C(=O)[C@@]2(O)C[C@H](C)[C@H](O)[C@@H]2[C@H]1OCC(C)C
not listed: A549 NSCLC | EKVX NSCLC | HT29 colon | IGROV1 ovarian | RPMI-8226 leukemia | SK-MEL-28 melanoma | HL-60(TB) leukemia | MALME-3M melanoma | NCI-H226 lung | CCRF-CEM leukemia
> 7.5 µM: all other assays above
